Data on 41 molecules can be found in patent US8916702B2 (priority 2012, dated 2014).

One may read the pEC50 as the EC50 on a negative log10 scale, so that one unit is a factor of ten.

This assay has as its system HCV pseudoparticles (genotype 1a HCV E1 and E2 envelope, H77C isolate). Briefly: microbe, parasite or virus in culture. In kind it is cell-based. To be noted: Hepatitis C virus.
The mark [1] stands for this setting: Huh-7, 48 h, read-out: Activity (EC50 class), HCV pseudoparticles, Huh7 cells, luciferase 2 days after infection, average of duplicates.
Where [2] appears, read: Huh-7, 48 h, read-out: Activity (EC50 class), HCV pseudoparticle infection of Huh7 cells, luciferase 2 days after infection, EC50 expressed as class A/B.
[3] abbreviates: Huh-7, 48 h, HCV pseudoparticle infection of Huh7 cells, luciferase 2 days after infection, average of duplicates.
Setting [4] is: Huh-7, read-out: Activity (EC50 class), HCV pseudoparticles (genotype 1a, H77C) in Huh7 cells, EC50 expressed as class A/B.
Setting [5] is: Huh-7, 48 h, HCV pseudoparticles, Huh7 cells, luciferase 2 days after infection, average of duplicates.

pEC50: −log10 of the molar value. Like-named read-outs stand apart in the source and are kept apart here.

Regarding `COC(=O)[C@H](CNC(=O)C(=O)Nc1ccc(Oc2ccccc2)nc1)NC(=O)c1ccc(Nc2nc(NC3(c4ccc(Cl)cc4)CC3)nc(OCC(F)(F)F)n2)cc1` [Compound 3715], under setting [1], the pEC50 was 8.00 to 11.00.

On to `O=C(NCC[C@H](NC(=O)c1ccc(Nc2nc(NC3(c4ccc(Cl)cc4)CC3)nc(OCC(F)(F)F)n2)cc1)C(=O)O)C(=O)Nc1cccc(C(F)(F)F)c1` [Compound 1271], for which the pEC50 under setting [2] is 8.00 to 11.00.

As to `COC(=O)[C@H](CNC(=O)C(=O)Nc1cccnc1OC)NC(=O)c1ccc(Nc2nc(NC3(c4ccc(Cl)cc4)CC3)nc(OCC(F)(F)F)n2)cc1` [Compound 1240], under setting [2], the pEC50 was 8.00 to 11.00.

On to `Cc1ccc(-c2ccc(NC(=O)C(=O)NCC(C)(C)CNC(=O)c3ccc(Nc4nc(NC5(c6ccc(Cl)cc6)CC5)nc(OCC(F)(F)F)n4)cc3)cc2)cc1` [Compound 1565], for which the pEC50 runs as follows: under setting [3], 9.89; under setting [2], 8.00 to 11.00.

With `CCc1ccccc1NC(=O)C(=O)NCC(C)(C)CNC(=O)c1ccc(Nc2nc(NC3(c4ccc(Cl)cc4)CC3)nc(OCC(F)(F)F)n2)cc1` [Compound 3047], the pEC50 under setting [4] is 8.00 to 11.00.

As to `O=C(NCC[C@H](NC(=O)c1ccc(Nc2nc(NC3(c4ccc(Cl)cc4)CC3)nc(OCC(F)(F)F)n2)cc1)C(=O)O)C(=O)Nc1cccc(-c2c[nH]cn2)c1` [Compound 3656], the pEC50 under setting [1] was 8.00 to 11.00.

For `COC(=O)[C@H](CNC(=O)C(=O)Nc1ccc(CCO)cc1)NC(=O)c1ccc(Nc2nc(NC3(c4ccc(Cl)cc4)CC3)nc(OCC(F)(F)F)n2)cc1` [Compound 3086], the negative logarithm of the EC50 (pEC50) under setting [4] is 8.00 to 11.00.

Take `NC(=O)c1cccc(NC(=O)C(=O)NC[C@H](NC(=O)c2ccc(Nc3nc(NC4(c5ccc(Cl)cc5)CC4)nc(OCC(F)(F)F)n3)cc2)C(=O)Cl)c1` [Compound 3745]: under setting [1], the negative-log EC50 (pEC50) was 8.00 to 11.00.

Consider `O=C(NC[C@H](NC(=O)c1ccc(Nc2nc(NC3(c4ccc(Cl)cc4)CC3)nc(OCC(F)(F)F)n2)cc1)C(=O)O)C(=O)Nc1ccc(Oc2ccc(Cl)cc2Cl)cc1` [Compound 3753], for which the pEC50 under setting [1] was 8.00 to 11.00.

Take `COC(=O)[C@H](CNC(=O)C(=O)NC1Cc2ccccc2C1)NC(=O)c1ccc(Nc2nc(NC3(c4ccc(Cl)cc4)CC3)nc(OCC(F)(F)F)n2)cc1` [Compound 1291]: the pEC50 under setting [2] was 8.00 to 11.00.

On to `COC(=O)[C@H](CCNC(=O)C(=O)NC(C)C1CC1)NC(=O)c1ccc(Nc2nc(NC3(c4ccc(Cl)cc4)CC3)nc(OCC(F)(F)F)n2)cc1` (stereo partly shown) [Compound 1417], for which the pEC50 is 9.80 under setting [3] and 8.00 to 11.00 under setting [2].

As for `Cc1nc(-c2cccc(NC(=O)C(=O)NCC[C@H](NC(=O)c3ccc(Nc4nc(NC5(c6ccc(Cl)cc6)CC5)nc(OCC(F)(F)F)n4)cc3)C(=O)O)c2)cs1` [Compound 3642], under setting [1], the pEC50 is 8.00 to 11.00.

Take `COc1ccccc1NC(=O)C(=O)NCC[C@H](NC(=O)c1ccc(Nc2nc(NC3(c4ccc(Cl)cc4)CC3)nc(OCC(F)(F)F)n2)cc1)C(=O)O` [Compound 1276]: the pEC50 under setting [2] is 8.00 to 11.00.

In the case of `COC(=O)[C@H](CCNC(=O)C(=O)Nc1cccc(Cl)c1)NC(=O)c1ccc(Nc2nc(NC3(c4ccc(Cl)cc4)CC3)nc(OCC(F)(F)F)n2)cc1` [Compound 1499], under setting [2], the pEC50 was 8.00 to 11.00.

In the case of `CCC(CC)CCNC(=O)c1ccc(NC(=O)C(=O)NC[C@H](NC(=O)c2ccc(Nc3nc(NC4(c5ccc(Cl)cc5)CC4)nc(OCC(F)(F)F)n3)cc2)C(=O)OC)cc1` [Compound 3089], the pEC50 under setting [4] was 8.00 to 11.00.

Take `CC(C)(CNC(=O)c1ccc(Nc2nc(NC3(c4ccc(Cl)cc4)CC3)nc(OCC(F)(F)F)n2)cc1)NC(=O)C(=O)Nc1cccc(F)c1` [Compound 3421]: the pEC50 under setting [4] is 8.00 to 11.00.

`COC(=O)[C@H](CNC(=O)C(=O)Nc1ccc(Oc2ccncc2)cc1)NC(=O)c1ccc(Nc2nc(NC3(c4ccc(Cl)cc4)CC3)nc(OCC(F)(F)F)n2)cc1` [Compound 3206]: the pEC50 under setting [4] is 8.00 to 11.00.

Regarding `COC(=O)[C@H](CCNC(=O)C(=O)NCC1CC[C@H]2C[C@@H]1C2(C)C)NC(=O)c1ccc(Nc2nc(NC3(c4ccc(Cl)cc4)CC3)nc(OCC(F)(F)F)n2)cc1` (stereo partly shown) [Compound 1201], under setting [2], the pEC50 was 8.00 to 11.00.

Regarding `O=C(NC[C@H](NC(=O)c1ccc(Nc2nc(NC3(c4ccc(Cl)cc4)CC3)nc(OCC(F)(F)F)n2)cc1)C(=O)O)C(=O)NC1CCCCCC1` [Compound 1175], the pEC50 under setting [2] was 8.00 to 11.00.

On to `CC(C)(C)CC(=O)N[C@H]1CC[C@@H](CNC(=O)C(=O)NC[C@H](NC(=O)c2ccc(Nc3nc(NC4(c5ccc(Cl)cc5)CC4)nc(OCC(F)(F)F)n3)cc2)C(=O)O)CC1` [Compound 1469], for which the negative logarithm of the EC50 (pEC50) under setting [3] was 8.64 and the pEC50 under setting [2] is 8.00 to 11.00.

As for `O=C(NCc1ccccc1)C(=O)NC[C@H](NC(=O)c1ccc(Nc2nc(NC3(c4ccc(Cl)cc4)CC3)nc(OCC(F)(F)F)n2)cc1)C(=O)O` [Compound 1164], the pEC50 under setting [2] was 8.00 to 11.00.

With `COC(=O)[C@H](CNC(=O)C(=O)Nc1ccc(C(F)(F)F)nc1)NC(=O)c1ccc(Nc2nc(NC3(c4ccc(Cl)cc4)CC3)nc(OCC(F)(F)F)n2)cc1` [Compound 3716], the negative logarithm of the EC50 (pEC50) under setting [5] is 9.21 and the pEC50 under setting [1] is 8.00 to 11.00.

As to `Cn1cnnc1-c1cccc(NC(=O)C(=O)NCC[C@H](NC(=O)c2ccc(Nc3nc(NC4(c5ccc(Cl)cc5)CC4)nc(OCC(F)(F)F)n3)cc2)C(=O)O)c1` [Compound 3643], under setting [1], the pEC50 is 6.00 to 8.00.

For `COc1cc(OC)nc(-c2ccc(NC(=O)C(=O)NCCC(NC(=O)c3ccc(Nc4nc(NC5(c6ccc(Cl)cc6)CC5)nc(OCC(F)(F)F)n4)cc3)C(=O)O)cc2)n1` (stereo not shown) [Compound 3523], the pEC50 under setting [4] is 8.00 to 11.00.

On to `CC(C)(CNC(=O)C(=O)Nc1ccc(F)cc1C(F)(F)F)CNC(=O)c1ccc(Nc2nc(NC3(c4ccc(Cl)cc4)CC3)nc(OCC(F)(F)F)n2)cc1` [Compound 3457], for which the negative-log EC50 (pEC50) under setting [4] was 8.00 to 11.00.

As to `CC(C)(CNC(=O)C(=O)Nc1ccncc1)CNC(=O)c1ccc(Nc2nc(NC3(c4ccc(Cl)cc4)CC3)nc(OCC(F)(F)F)n2)cc1` [Compound 3241], the pEC50 under setting [4] is 8.00 to 11.00.

Turning to `COC(=O)/C(CCNC(=O)C(=O)Nc1cccc(-c2csc(C)n2)c1)=N\C(=O)c1ccc(Nc2nc(NC3(c4ccc(Cl)cc4)CC3)nc(OCC(F)(F)F)n2)cc1` [Compound 3596], the pEC50 under setting [4] is 8.00 to 11.00.

Consider `CC(C)(CNC(=O)C(=O)Nc1c(F)cc(F)cc1F)CNC(=O)c1ccc(Nc2nc(NC3(c4ccc(Cl)cc4)CC3)nc(OCC(F)(F)F)n2)cc1` [Compound 3416], for which, under setting [4], the pEC50 was 8.00 to 11.00.

Take `C=Cc1ccc(NC(=O)C(=O)NCC(C)(C)CNC(=O)c2ccc(Nc3nc(NC4(c5ccc(Cl)cc5)CC4)nc(OCC(F)(F)F)n3)cc2)cc1` [Compound 1604]: the pEC50 is 10.70 under setting [3] and 8.00 to 11.00 under setting [2].

For the molecule `COC(=O)[C@H](CNC(=O)C(=O)Nc1cccc(-c2ccccc2)c1)NC(=O)c1ccc(Nc2nc(NC3(c4ccc(Cl)cc4)CC3)nc(OCC(F)(F)F)n2)cc1` [Compound 3695], the pEC50 under setting [1] was 8.00 to 11.00.

Turning to `CC1(C)[C@H]2C[C@@]1(C)CCC2CNC(=O)C(=O)NCC[C@H](NC(=O)c1ccc(Nc2nc(NC3(c4ccc(Cl)cc4)CC3)nc(OCC(F)(F)F)n2)cc1)C(=O)O` (stereo partly shown) [Compound 1211], the negative logarithm of the EC50 (pEC50) is 9.89 under setting [3] and 8.00 to 11.00 under setting [2].

With `Cc1c(Cl)ccc2sc(NC(=O)C(=O)NCC(C)(C)CNC(=O)c3ccc(Nc4nc(NC5(c6ccc(Cl)cc6)CC5)nc(OCC(F)(F)F)n4)cc3)nc12` [Compound 3817], the negative logarithm of the EC50 (pEC50) is, setting by setting: under setting [5], 9.96; under setting [1], 8.00 to 11.00.

`C=Cc1ccccc1NC(=O)C(=O)NCC(C)(C)CNC(=O)c1ccc(Nc2nc(NC3(c4ccc(Cl)cc4)CC3)nc(OCC(F)(F)F)n2)cc1` [Compound 3362]: under setting [4], the pEC50 was 8.00 to 11.00.

`COC(=O)[C@H](CNC(=O)C(=O)NCc1ccc(F)cc1F)NC(=O)c1ccc(Nc2nc(NC3(c4ccc(Cl)cc4)CC3)nc(OCC(F)(F)F)n2)cc1` [Compound 1134]: the pEC50 under setting [2] is 8.00 to 11.00.

Take `O=C(NCCc1ccccc1)C(=O)NC[C@H](NC(=O)c1ccc(Nc2nc(NC3(c4ccc(Cl)cc4)CC3)nc(OCC(F)(F)F)n2)cc1)C(=O)O` [Compound 1396]: the negative-log EC50 (pEC50) under setting [2] is 8.00 to 11.00.

In the case of `COC(=O)[C@H](CCNC(=O)C(=O)NC1CCCCCC1)NC(=O)c1ccc(Nc2nc(NC3(c4ccc(Cl)cc4)CC3)nc(OCC(F)(F)F)n2)cc1` [Compound 1141], the negative logarithm of the EC50 (pEC50) under setting [2] was 8.00 to 11.00.

As for `O=C(NC[C@H](NC(=O)c1ccc(Nc2nc(NC3(c4ccc(Cl)cc4)CC3)nc(OCC(F)(F)F)n2)cc1)C(=O)O)C(=O)N[C@@H]1C[C@H]1c1ccccc1` [Compound 1406], under setting [2], the pEC50 is 8.00 to 11.00.

Consider `O=C(NCC(O)CNC(=O)c1ccc(Nc2nc(NC3(c4ccc(Cl)cc4)CC3)nc(OCC(F)(F)F)n2)cc1)C(=O)Nc1ccccc1` (stereo not shown) [Compound 3460], for which the pEC50 is 10.80 (Huh-7, 48 h, HCV pseudoparticles (genotype 1a, H77C) in Huh7 cells, average of duplicate, luciferase 2 days after infection) and 8.00 to 11.00 under setting [4].

Consider `NC(=O)C(=O)NCCC(NC(=O)c1ccc(Nc2nc(NC3(c4ccc(Cl)cc4)CC3)nc(OCC(F)(F)F)n2)cc1)C(=O)O` (stereo in doubt) [Compound 1013, (S)-4-(2-amino-2-oxoacetamido)-2-(4-(4-(1-(4-chlorophenyl)cyclopropylamino)-6-(2,2,2-trifluoroethoxy)-1,3,5-triazin-2-ylamino)benzamido)butanoic acid], for which the pEC50 under setting [2] is 8.00 to 11.00.

Consider `CN(C)C(=O)C(=O)NC[C@H](NC(=O)c1ccc(Nc2nc(NC3(c4ccc(Cl)cc4)CC3)nc(OCC(F)(F)F)n2)cc1)C(=O)O` [Compound 1007, (S)-2-(4-(4-(1-(4-chlorophenyl)cyclopropylamino)-6-(2,2,2-trifluoroethoxy)-1,3,5-triazin-2-ylamino)benzamido)-3-(2-(dimethylamino)-2-oxoacetamido)propanoic acid], for which, under setting [2], the pEC50 was 8.00 to 11.00.

`NS(=O)(=O)c1ccc(NC(=O)C(=O)NC/C(=N/C(=O)c2ccc(Nc3nc(NC4(c5ccc(Cl)cc5)CC4)nc(OCC(F)(F)F)n3)cc2)C(=O)O)cc1` [Compound 3155]: the pEC50 under setting [4] is 8.00 to 11.00.
